In ChEMBL document CHEMBL1146623, “Two antiviral compounds from the plant Stylogne cauliflora as inhibitors of HCV NS3 protease” (Bioorg Med Chem Lett, 2003) one finds IC50 data, which are given here for two molecules.

The term IC50 denotes the point on the concentration scale where inhibition reaches its midpoint.

Test [1] has as its target T1, NS3 (Hepatitis C virus, UniProt A3EZJ3). Kind of test: Inhibitory activity evaluated in the HCV NS3 protease activity assay. The arrangement: species or system Hepacivirus hominis.
Test [2] addresses T1, NS3. Kind of test: Inhibitory activity evaluated in the HCV NS3 protease assay. The arrangement: species or system Hepacivirus hominis.

T1 sequence (A3EZJ3 whole entry): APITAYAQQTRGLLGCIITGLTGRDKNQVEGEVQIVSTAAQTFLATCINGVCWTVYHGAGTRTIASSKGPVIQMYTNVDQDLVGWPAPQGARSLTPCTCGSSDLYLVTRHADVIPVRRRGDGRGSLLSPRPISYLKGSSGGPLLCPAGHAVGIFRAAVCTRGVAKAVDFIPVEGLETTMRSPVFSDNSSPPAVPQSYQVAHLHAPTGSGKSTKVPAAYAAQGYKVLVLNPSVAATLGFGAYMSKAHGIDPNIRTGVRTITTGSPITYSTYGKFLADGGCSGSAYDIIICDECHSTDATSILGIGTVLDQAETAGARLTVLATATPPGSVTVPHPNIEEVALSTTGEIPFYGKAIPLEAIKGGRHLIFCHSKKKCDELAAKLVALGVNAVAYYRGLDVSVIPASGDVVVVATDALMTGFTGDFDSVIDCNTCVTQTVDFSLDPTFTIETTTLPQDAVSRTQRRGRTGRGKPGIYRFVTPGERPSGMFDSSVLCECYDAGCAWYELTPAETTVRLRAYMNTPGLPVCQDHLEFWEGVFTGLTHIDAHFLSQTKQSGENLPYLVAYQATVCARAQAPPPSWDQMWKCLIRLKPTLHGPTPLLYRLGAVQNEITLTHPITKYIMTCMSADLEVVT

On NS3 [1], `O=C1OC[C@H]2O[C@@H](Oc3cc(O)c4c(c3)OC(c3ccccc3)CC4=O)[C@H](O)[C@@H](O)[C@@H]2OC(=O)c2cc(O)c(O)c(O)c2-c2c1cc(O)c(O)c2O` (some centres not stated) registered an IC50 of 300 nM.
Molecule `O=C1OC[C@H]2O[C@@H](Oc3cc(O)c(C(=O)CCc4ccccc4)c(O)c3)[C@H](O)[C@@H](O)[C@@H]2OC(=O)c2cc(O)c(O)c(O)c2-c2c1cc(O)c(O)c2O` [THONNINGIANIN B] displayed a half-maximal inhibitory concentration (IC50) on NS3 [2] of 800 nM.
